Results as given in patent US20260248833A1, “PYRIMIDINE NUCLEOSIDE TREATMENTS” (The Children`s Medical Center Corporation, priority 2022, published 2026).
“Also recorded” adds a separate entry of the source.

What was measured:
[1] = test system: iPSCs from a healthy donor; assay: TRF Southern blot telomere length, wildtype iPSCs; format: cell-based, human
Experimental: (§1) Cell culture: K562 cells (ATCC) were grown in RPMI1 1640 (Gibco) media supplemented with 10% fetal bovine serum. 293T cells (ATCC) were grown in DMEM (Gibco) supplemented with 10% fetal bovine serum, and were subcultured using 0.05% trypsin (Gibco). iPSCs were derived, characterized and cultured as previously described. iPSCs were grown in Essential 8 Media (Life Technologies) supplemented with the ROCK inhibitor Y271632 (Stem Cell Technologies) at 10 μM on plates coated with hES qualitied Matrigel matrix (Corning) and were subcultured using Accutase (Stem Cell Technologies).
(§2) Terminal Restriction Fragment Length Analysis: genomic DNA was isolated from cells using the Invitrogen Purelink Genomic DNA mini kit (Invitrogen). 1-3 μg of gDNA was digested with RsaI and HinfI for 2-3 hrs at 37° C. and loaded onto a 0.6% agarose gel followed by Southern blotting using the Telotaggg Telomere Length Assay Kit (Roche). Quantification was performed using the WALTER webtool.

[2] = test system: mouse model of TK2 deficiency; conditions: 520 mg/kg/day of dT; cited from earlier work
[3] = test system: super-telomerase cells (TERC-null 293T cells transfected with TERT and TERC); assay: Cell cycle analysis by DAPI staining and flow cytometry, super-telomerase cells; format: cell-based, human; conditions: 40 μM dT
Experimental: (§3) Cell cycle analysis by DNA content staining and flow cytometry: Cells were prepared either for flow-FISH staining as described (for experiments in FIG. 5) or by ethanol fixation (for data in FIG. 6, 27), followed by rehydration and counterstaining using DAPI (BD Biosciences) and analysis on an LSR-II or Fortessa analyzer (BD Biosciences) using BD FACSDiva 8.0.2. Cells were gated on FSC/SSC as described in FIG. 6d using FlowJo V10.7.1.

[4] = test system: super-telomerase cells (TERC-null 293T cells transfected with TERT and TERC); assay: TRF Southern blot telomere synthesis in super-telomerase cells; format: cell-based, human
Experimental: as §2
dT supplementation increases levels of dTTP and can reduce dCTP levels, leading to replication stress at high doses. Because replication stress signaling has been implicated in telomerase biology we asked whether replication stress induction explained the telomere length increases seen with dT treatment. We first tested whether telomere elongation is a universal response to replication stress-inducing compounds. […] However, cytotoxicity limited our ability to apply higher doses of replication stress-inducing compounds for time periods long enough to study telomere length changes. […] Using this system, we next asked how high-dose treatment with replication stress-inducing agents such as aphidicolin, hydroxyurea, and the TYMS inhibitor 5FU influence telomere synthesis compared to dT.

[5] = cited from earlier work
K562 cells = assay: Terminal restriction fragment (TRF) Southern blot telomere length, K562 cells; format: cell-based, human
Experimental: as §1, §2

293T cells [6] = assay: Cell growth curves by hemocytometry, 293T cells; format: cell-based
Experimental: Quantification of cell growth was performed using hemocytometry with trypan blue staining to identify dead cells. For growth curves, 50k cells were plated per 12 well or 100k cells were plated per 6 well and cells were passaged when confluent, counted using a hemocytometer, and replated at equal numbers in fresh media.

[7] = test system: iPSCs derived from TBD patients; assay: TRF Southern blot telomere length, TBD patient-derived iPSCs; format: cell-based, human; conditions: for telomere length increase / telomere elongation: 50 μM dT for three weeks; for telomere elongation: panel of TBD patient iPSCs (TERC, DKC1, PARN)
Experimental: as §1, §2

293T cells [8] = assay: Cell cycle analysis by DAPI staining and flow cytometry, 293T cells; format: cell-based, human
Experimental: as §3

[9] = test system: T-free super-telomerase expressing cells (293T TERC-null); assay: Slot blot of GGAAAG repeat content in cellular DNA; format: cell-based, human
Experimental: Slot blotting: slot blotting was performed as described with minor modifications. Briefly, DNA concentration was normalized to 20 ng/μl using a nanodrop spectrophotometer. 3.3 μl of DNA was added to 16.5 μl of denaturation solution (0.5 M NaOH, 1.5 M NaCl) and heated to 55° C. for 30 minutes. 495 μl of neutralization solution (0.5 M Tris-HCl, 1.5 M NaCl) was added to denatured DNA and 156 μl of this solution was added in triplicate to different slots on a Bio-Dot SF Apparatus (Bio-Rad) and blotted onto Hybond N+ Membrane (Cytivia). Membrane preparation and washing was performed as described. For samples with paired GGTTAG and GGAAAG slot blots, the above recipe was doubled, and 156 μl was loaded onto parallel membranes in triplicate on each membrane. After blotting, membranes were hybridized and detected as described above for TRF Southern blots using the probe indicated in the figure. Blots were analyzed using ImageJ. Statistical analysis was performed using Graphpad prism V9.1.0.

[10] = test system: TERC−/− 293T cells stably expressing dmDNK; assay: Telomere DNA content blot in dmDNK expressing cells; format: cell-based, human; conditions: TERT and TERC transfected, nucleoside 24-30 hrs, versus eGFP control
Text: Combining thymidine treatment with expression of a nucleoside kinase to improve efficiency of nucleoside uptake and thereby promote telomere lengthening. combining nucleoside treatment with the expression of TK1, or the deoxynucleoside kinase from Drosophila (dmDNK), either of which can be delivered via mRNA. See FIG. 29A-B. TERC-/- 293T cells stably expressing dmDNK or eGFP (control) were transfected with vectors to express […], then cultured in the indicated doses of nucleoside, followed by analysis of telomere DNA content via blotting and detection with a complementary oligonucleotide probe.

wild-type iPSCs = assay: Cell cycle analysis by DAPI staining and flow cytometry, iPSCs; format: cell-based, human; conditions: 24 hours
Experimental: as §3

[11] = increasing doses of dT (FIG. 8a)

Cc1cn([C@H]2C[C@H](O)[C@@H](CO)O2)c(=O)[nH]c1=O [dT, 1-[(2R,4S,5R)-4-Hydroxy-5-(hydroxymethyl)oxolan-2-yl]-5-methylpyrimidine-2,4 (1H,3H)-dione]
telomere elongation ([1]; 100 μM dT, three weeks): ~ 2000 bp
telomere elongation ([1]; dT for three weeks): significantly elongated telomeres
lifespan [2]: increased lifespan in a mouse model of TK2 deficiency
cell cycle progression at the telomere-active dose [3]: below those that significantly impacted cell cycle progression
dose at which increased telomere repeat synthesis could be observed ([4]; 30 hours): 40 µM
rescue of telomere synthesis following 5FU treatment ([4]; dT supplementation with maximal doses of 5FU): restored telomere elongation despite maximal doses of 5FU; also recorded: fully rescued telomere synthesis
maximal rate of telomere elongation ([4]; high-dose dT treatment, 30 hours, baseline 103 bp/hour): 625 bp/hour
telomere repeat synthesis / telomere elongation by telomerase ([4]; treatment for 30 hours): robustly increased telomere repeat synthesis in a dose-responsive and telomerase-dependent manner
aqueous solubility [5]: about 50 mg/ml
thymidine doses driving robust telomere length increases (K562 cells; 34 days of culture in low dose thymidine (FIGS. 2L and 2N)): ≥ 5 µM
doses leading to robust telomere elongation in less than 10 days (K562 cells; K562 cells): ≥ 50 µM
telomere length (K562 cells; K562 cells, 100 μM of the indicated deoxynucleoside(s) for 8 days): rapidly and robustly increases telomere length; also recorded: promoted telomere lengthening, as did dT alone
telomere lengthening following dT with dNTPase-deficient SAMHD1 H215A or K312A variants (K562 cells; K562 cells, 10 days): could not restrict telomere lengthening following dT supplementation
telomere lengthening following dT treatment with overexpression of wild-type SAMHD1 (K562 cells; K562 cells, 10 days, compared to EGFP control): reduced telomere lengthening following dT treatment
lowest dT dose giving robust telomere lengthening without growth change (K562 cells; K562 cells, 34 days): ≥ 5 µM
telomere lengthening upon dT treatment in TK1-edited cells (K562 cells; K562 cells, CRISPR/Cas9 TK1 edited, 10 days): complete abrogation of the telomere lengthening
telomere lengthening upon dT treatment in TK2-edited cells (K562 cells; K562 cells, CRISPR/Cas9 TK2 edited, 10 days): no difference in telomere length increases compared to control AAVS1-targeted cells
telomere elongation, increase of base pairs (bp) per day (K562 cells; K562 cells, at 100 μM dT): 204 bp per day
telomere elongation, increase of base pairs (bp) per day (K562 cells; K562 cells, at […] dT): 132 bp per day
telomere lengthening in TYMS-knockout cells (K562 cells; K562 cells, baseline 16 μM dT, plus 100 μM additional dT or 1 mM dU, 10 days): responsive to dT to promote telomere lengthening
cellular growth (293T cells [6]; 20 or 40 μM dT, 34 days): undetectable changes in cellular growth curves; also recorded: undetectable impact on cellular growth
dose at which inhibition of growth was detected (293T cells [6]; [11]): ≥ 50 µM
doses at which growth was minimally impacted (293T cells [6]; [11]): below 100 μM
telomere length increase ([7]; PARN deficient iPSCs): 570 bp
telomere length ([7]; TBD patient-derived iPSCs with two different mutations, 100 μM dT for 22 days (FIG. 13A)): increased telomere length
telomere length increase ([7]; TERC deficient iPSCs): 640 bp
telomere elongation [7]: produced telomere elongation in all cases
telomere elongation ([7]; listed as thymidine): hundreds of basepairs
dT doses with no detectable changes in cell cycle distribution (293T cells [8]): below 100 μM
GGAAAG repeat content ([9]; 100 μM dT, 30 hours, wild-type versus T-free super-telomerase): an increase in GGAAAG repeat content exclusively in cells expressing T-free telomerase; also recorded: enhanced repeat synthesis by telomerase
rescue of GGAAAG repeat synthesis following 5FU treatment ([9]; dT with 5FU): could rescue the inhibition of GGAAAG repeat synthesis following 5FU treatment; also recorded: rescued by dT supplementation
telomere lengthening with expression of a nucleoside kinase (dmDNK) [10]: Enhanced telomere lengthening from the combination of expressing a nucleoside kinase with dT treatment
dT doses with minimal effects on cell cycle progression (wild-type iPSCs): ≤ 50 µM
